Test results as given in ChEMBL document CHEMBL2364335, “Structure-activity relationship data for chemical series of achiral agonists of the ghrelin (growth hormone secretagogue) receptor (Supplementary Bioactivity Data for publication CHEMBL1140573)”.

Target: Growth hormone secretagogue receptor type 1 (Homo sapiens, UniProt Q92847)
Experiment: SUPPLEMENTARY: Agonist activity at GSHR by FLIPR assay. Same assay as CHEMBL941945
Assay type: functional

Chain of Growth hormone secretagogue receptor type 1 (Q92847 whole entry): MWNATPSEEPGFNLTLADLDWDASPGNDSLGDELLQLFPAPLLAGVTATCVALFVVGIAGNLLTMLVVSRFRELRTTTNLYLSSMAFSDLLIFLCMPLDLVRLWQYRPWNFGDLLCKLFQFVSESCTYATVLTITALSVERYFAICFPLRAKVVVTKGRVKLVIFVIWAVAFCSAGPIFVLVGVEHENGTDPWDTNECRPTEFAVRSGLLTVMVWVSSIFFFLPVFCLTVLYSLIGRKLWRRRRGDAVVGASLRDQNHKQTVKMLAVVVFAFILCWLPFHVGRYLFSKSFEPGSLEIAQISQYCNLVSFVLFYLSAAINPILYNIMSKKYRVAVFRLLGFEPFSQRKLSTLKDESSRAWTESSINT

Row | EC50 [nM] | Structure (SMILES)
1 | 63.1 | COc1ccc(N2C[C@@H](C)N[C@@H](C)C2)cc1NS(=O)(=O)c1cc(C)c(-c2ccccc2F)s1
2 | 6.31 | COc1ccc(N2C[C@@H](C)N[C@@H](C)C2)cc1NS(=O)(=O)c1ccc(-c2cccc(C)n2)cc1C
3 | 20 | COc1ccc(N2C[C@@H](C)N[C@@H](C)C2)cc1NS(=O)(=O)c1ccc(-c2ccccc2F)cc1
4 | 63.1 | COc1ncc(N2C[C@@H](C)N[C@@H](C)C2)cc1NS(=O)(=O)c1ccc(-c2ccc(C)o2)c(F)c1
5 | 5.01 | COc1ccc(N2C[C@@H](C)N[C@@H](C)C2)nc1NS(=O)(=O)c1ccc(-c2cc(C)cs2)cc1Cl
6 | 20 | COc1cc(F)c(N2C[C@@H](C)N[C@@H](C)C2)cc1NS(=O)(=O)c1ccc(-c2ccccn2)s1
7 | 100 | COc1ccc(N2C[C@@H](C)N[C@@H](C)C2)cc1NS(=O)(=O)c1ccc(-c2cccnc2)s1
8 | 1.58 | COc1ccc(NS(=O)(=O)c2ccc(-c3ccc(C)s3)s2)cc1N1C[C@@H](C)N[C@@H](C)C1
9 | 20 | Cc1ccc(-c2ccc(S(=O)(=O)Nc3cc(N4C[C@@H](C)N[C@@H](C)C4)ccn3)cc2F)o1
10 | 3.98 | COc1ccc(N2C[C@@H](C)N[C@@H](C)C2)cc1NS(=O)(=O)c1ccc(-c2cccs2)s1
11 | 3.98 | COc1ccc(N2C[C@@H](C)N[C@@H](C)C2)cc1NS(=O)(=O)c1ccc(-c2ccc(C)s2)cc1F
12 | 12.6 | CCOc1ccc(N2C[C@@H](C)N[C@@H](C)C2)cc1NS(=O)(=O)c1ccc(-c2cccs2)cc1
